# Assays:
# [1] = system: RS485 cells; assay: Growth curves of RS485 cells (crystal violet staining); format: cell-based; conditions: for decrease of growth rate: linear regression of log of absorbance vs time
# Excerpt: Effect of suramin on RS485 cell phenotype. Suramin is a polysulfonated naphthylurea, initially used in the treatment of trypanosomiasis and onchocerciasis (Sullivan et al., 1997). Its anti-cancer activity was later identified, and suramin has been introduced into clinical trials for various forms of cancer (La Rocca et al., 1990(a); La Rocca et al., 1990(b); Song et al., 2001; Small et al., 2000; Garcia-Schurmann et al., 1999). Suramin interrupts autocrine growth factor pathways by inhibiting the binding of growth factors to their receptors (Sullivan et al., 1997; Zanghi et al., 2000; Fukumoto et al., 2000; Mietz et al., 1998; Coffey et al., 1987). Treatment of c-Ha-ras-transformed NIH 3T3 cells (RS485 cell line) with suramin leads to the induction of lysyl oxidase (Palamakumbura et al., 2003). Here we investigated the effects of suramin on the rate of growth and morphology of RS485 cells, as an initial measure of cell phenotype. Cells were plated in 6-well plates and cultured for 24 hours and then grown in the continuous presence of 0, 100, 125, or 150 μM suramin. As control, the growth of phenotypically normal NIH 3T3 cells in the absence of suramin was analyzed at the same time. Cell growth was determined by daily crystal violet staining of replicate wells. RS485 cells grew more rapidly than NIH 3T3 cells, as expected (Chang et al., 1982). […] The growth rate of RS485 cells treated with 150 μM suramin was similar to that of NIH 3T3 cells.
# BAPN-mediated inhibition of lysyl oxidase enzyme activity fails to prevent phenotypic reversion induced by suramin. It has generally been assumed, although never directly tested, that lysyl oxidase dependent phenotypic reversion and tumor suppressor activity depends on its enzyme activity. To directly test the role of lysyl oxidase enzyme activity, we measured the effects of the lysyl oxidase inhibitor, BAPN (Tang et al., 1983), on the phenotypic changes in RS485 cells following treatment with 150 μM suramin. We have previously shown that suramin induces lysyl oxidase activity by about 2.5-fold (Palamakumbura et al., 2003). RS485 cell growth was assessed in the absence or presence of either 150 μM suramin or 400 μM BAPN, or a combination of both 150 μM suramin and 400 μM BAPN.
# (§1) Growth curves. To study cell growth rates, cells were plated in 6-well plates at a density of 35,000 cells/well and were grown in complete medium containing 10% FBS, as described above. Additions of suramin or β-aminopropionitrile (BAPN), when appropriate, were initiated 24 hours after plating. Media were changed every three days in the continuous presence of suramin or BAPN, as indicated for each experimental design in the Results section. Cell density was determined in triplicate every day by crystal violet staining, as described (Kueng et al., 1989; Gillies et al., 1986). Cells were fixed with 10% formalin in PBS, washed with PBS, and then stained for 30 minutes with 0.1% crystal violet at room temperature with shaking. Unbound dye was then removed by washing with water until washes were colorless. Bound dye was then eluted with 10% acetic acid, and quantitated by measuring the absorbance at 590 nm. For quantitative analyses of growth rates, the logarithmic value of absorbance vs time was plotted±standard deviation and the rates were calculated by linear regression analyses. In addition, data were plotted as total absorbance +/−SE vs time. Experiments were performed three times each with consistent findings.
# [2] = system: RS485 cells; assay: Cell cycle analysis (FACS, propidium iodide) of RS485 cells treated with suramin; format: cell-based; conditions: 2 days
# Protocol: We next determined the effects of suramin on cell cycle progression of RS485 cell cultures. […] The proportions of cells in G1 and S phases in cultures treated with 150 μM suramin are nearly identical to untreated phenotypically normal NIH 3T3 cells (Table I). Thus, treatment with 150 μM suramin changed the morphology, cell cycle, and growth rate of RS485 cells resulting in a more normal phenotype.
# (§2) Cell cycle analysis. RS485, NIH 3T3 and PR4 cells were plated on 100 mm plates and were grown until confluent with 0 or 150 μM suramin. Cells (1.5−2×10^6) were then trypsinized, washed with PBS and fixed by washing with ice-cold 70% ethanol. Cells were stained with propidium iodide (50 μg/ml) in PBS containing 2% FBS and was analyzed by flow cytometry using a FACScan flow cytometry with CELLQUEST acquisition and analysis software (Becton Dickinson Co, Bedford, Mass.).
# RS485 cells were grown in the presence of 0, 100, or 150 μM suramin for 2 days. Alternatively, NIH 3T3 cells were grown in the absence of suramin, as control. Cells (1.5−2×10^6) were fixed with 70% ethanol and stained with propidium iodide and analyzed by flow cytometry. Data shown are the averages ±SD of experiments performed three times.
# [3] = system: transfected RS485 cell clones; assay: Cell cycle analysis of anti-sense lysyl oxidase and empty vector transfected RS485 cell clones; format: cell-based; conditions: 150 μM suramin, 24 hours
# Protocol: Inhibition of lysyl oxidase expression reduces phenotypic reversion induced by suramin. […] To determine that the suramin-induced phenotypic changes depend upon lysyl oxidase expression, we generated stable anti-sense lysyl oxidase transfected RS485 cell clones. Nine anti-sense lysyl oxidase transfected clones and six empty vector transfected clones were generated and grown in the presence and absence of 150 μM suramin, and after 24 hours, cells were fixed and subjected to cell cycle analysis. Non-transfected RS485 cells were analyzed as an additional control. Differences in the percentage of cells in G1 and S phase occurred as a function of suramin treatment.
# as §2
# Stable transfection of RS485 cells with an anti-sense lysyl oxidase expression vector. Cells were grown in 100 mm cell culture dishes. At approximately 70% confluence, they were transfected with the anti-sense murine lysyl oxidase expression vector pCLO3 (Giampuzzi et al., 2001) (20 μg DNA/plate) using the calcium phosphate precipitation method (Graham et al., 1973). As a control, RS485 cells were transfected with empty vector (pcDNA3). The transfected cells were selected using G418 (geneticin) at a final concentration of 400 μg/ml in the medium. Colonies were isolated from anti-sense lysyl oxidase and empty vector transfected RS485 cells using cloning cylinders (Southern et al., 1982) and cultured in 400 μg/ml G418. Cells were then plated onto 100 mm plates (250,000 cells/plate) without G418 and treated with 0 or 150 μM suramin. After 24 hours, cells were prepared for cell cycle and Northern analysis as described above.
# [4] = system: lysyl oxidase mRNA; assay: Northern blot analysis of lysyl oxidase mRNA in transfected RS485 clones; format: cell-based, mouse; conditions: 150 μM suramin, 24 hours, normalized to 18S rRNA
# Protocol: To confirm that lysyl oxidase expression is actually diminished by anti-sense lysyl oxidase transfection, the ability of 150 μM suramin to induce low steady state mRNA levels of lysyl oxidase in clones was assessed after 24 hours of treatment by Northern blot analysis with normalization to 18S rRNA signals. Suramin treatment led to an average 8-fold increase in lysyl oxidase mRNA levels in the six empty vector-transfected clones assayed, consistent with previous studies on non-transfected RS485 cells (Palamakumbura et al., 2003). In contrast, an average 1.8-fold increase in lysyl oxidase mRNA levels occurred in the nine anti-sense lysyl oxidase transfected clones, as shown by Northern blot analysis. Thus, the induction of steady state lysyl oxidase mRNA levels by suramin is inhibited by the anti-sense lysyl oxidase transfection, as expected.
# RNA isolation and Northern blot analysis. Total RNA was isolated using the RNeasy —RNA isolation kit (Qiagen, Valencia, Calif.). Ten μg samples of denatured RNA were electrophoresed on a 1% agarose gel containing […]. Gels were transferred in 10×SSC by capillary blotting overnight to Gene Screen nylon membranes (Perkin Elmer Life Science, Boston, Mass.). […] Autoradiograms were assessed and normalized by densitometric scanning on a Versa Doc Model 3000 Gel Documentation System and Quantity One Software (BioRad, Hercules, Calif.). […]
# [5] = system: lysyl oxidase activity; conditions: previously shown (Palamakumbura et al., 2003); cited from earlier work
# [6] = system: PR4 cells; assay: Growth curves and morphology of PR4 cells; format: cell-based; conditions: 400 μM BAPN
# Protocol: (§3) If lysyl oxidase enzyme activity were required for the normal phenotype of PR4 cells, then BAPN would cause re-transformation. Thus, growth curves were generated for PR4 cells in the presence of 0 or 400 μM BAPN.
# as §1, with “Experiments were performed three times each with consistent findings.” left out
# [7] = target: T1, lysyl oxidase (Mus musculus, UniProt P28301); assay: Lysyl oxidase enzyme activity in PR4 cell culture media (tritiated tropoelastin substrate); format: biochemical
# T1 construct: endogenous in cells; conditioned serum-free medium
# T1 sequence (P28301 163-411): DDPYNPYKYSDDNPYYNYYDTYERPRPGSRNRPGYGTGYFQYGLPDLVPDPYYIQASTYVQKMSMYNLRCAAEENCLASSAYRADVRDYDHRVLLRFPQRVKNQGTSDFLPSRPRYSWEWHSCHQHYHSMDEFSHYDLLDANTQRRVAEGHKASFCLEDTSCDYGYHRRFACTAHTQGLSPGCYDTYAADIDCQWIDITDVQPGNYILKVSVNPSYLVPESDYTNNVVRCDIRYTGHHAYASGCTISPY
# Protocol: as §3
# Lysyl oxidase enzyme activity. PR4 cells were plated in 100 mm cell culture plates and then grown and re-fed every two days as described above in the constant presence of 0, 200 and 400 μM BAPN for seven days until visually confluent. Cells were then re-fed with serum-free medium supplemented with 0.1% bovine serum albumin still in the constant presence or absence of BAPN. After 24 hours conditioned 0.3 ml aliquots of media samples were assayed in quadruplicate using a tritiated recombinant human tropoelastin as substrate as previously described (Bedell-Hogan et al., 1993). Incubations were performed at […] for 90 minutes (Hong et al., 1999) and data were expressed as total cpm released +/−SE per culture.
# [8] = system: ras-transformed fibroblasts; assay: Growth in soft agar of ras-transformed fibroblasts with ectopic lysyl oxidase expression, with BAPN; format: cell-based
# Excerpt: It has now been determined that the ability of lysyl oxidase to revert the phenotype of ras-transformed fibroblasts depends substantially on the pro-peptide domain and not on lysyl oxidase enzyme activity. Since diminished lysyl oxidase expression in some way contributes to the transformed phenotype, it had generally been assumed that lysyl oxidase enzyme activity is related to the tumor suppressor activity of lysyl oxidase, and, therefore, that diminished lysyl oxidase activity promotes the transformed phenotype. […] The lack of effect of BAPN on lysyl oxidase-dependent phenotype control is interesting. […] Given that BAPN is an irreversible inhibitor of lysyl oxidase (Tang et al., 1983), it follows that both extracellular and intracellular lysyl oxidase activity are susceptible to inhibition by BAPN.
# [9] = anti-sense lysyl oxidase transfected clones
# [10] = empty vector transfected clones
structure (smiles),measurement,setting,value
Cc1ccc(C(=O)Nc2ccc(S(=O)(=O)O)c3cc(S(=O)(=O)O)cc(S(=O)(=O)O)c23)cc1NC(=O)c1cccc(NC(=O)Nc2cccc(C(=O)Nc3cc(C(=O)Nc4ccc(S(=O)(=O)O)c5cc(S(=O)(=O)O)cc(S(=O)(=O)O)c45)ccc3C)c2)c1 [suramin],decrease of growth rate,[1]; 100 μM suramin,38%
same,decrease of growth rate,[1]; 125 μM suramin,49%
same,morphology of RS485 cells,[1]; 150 μM suramin,flatter and contact inhibited
same,effect on growth rate of RS485 cells,[1]; 150 μM suramin (BAPN experiment),decreased the growth rate
same,decrease of growth rate,[1]; 150 μM suramin,56%
same,G1 %,[2]; 100 μM suramin,59.4 ± 1.3%
same,"G2, M %",[2]; 100 μM suramin,19.1 ± 7.9%
same,S %,[2]; 100 μM suramin,21.5 ± 2.4%
same,G1 %,[2]; 150 μM suramin,67.4 ± 0.2%
same,"G2, M %",[2]; 150 μM suramin,13.6 ± 1.9%
same,S %,[2]; 150 μM suramin,19.0 ± 1.7%
same,decrease in S phase,[3]; [9],6.9%
same,increase in percentage of cells in G1 phase,[3]; [9],10.6%
same,decrease of average number of cells in S phase,[3]; [10],13.5%
same,increase of average number of cells in G1,[3]; [10],20.8%
same,average increase in lysyl oxidase mRNA levels,[4]; nine anti-sense lysyl oxidase transfected clones,1.8 fold
same,average increase in lysyl oxidase mRNA levels,[4]; six empty vector-transfected clones,8 fold
same,induction of lysyl oxidase activity,[5],about 2.5 fold
"N#CCCN [BAPN, β-aminopropionitrile]",effect on suramin-mediated inhibition of RS485 cell growth,[1]; 150 μM suramin and 400 μM BAPN combined,did not reverse or affect in any detectable way
same,effect on growth rate of RS485 cells,[1]; 400 μM BAPN,had no effect on the growth rate
same,effect on growth rate of PR4 cells,[6],did not affect the growth rate
same,effect on morphology of PR4 cells,[6],did not change the morphology
same,lysyl oxidase enzyme activity in medium,[7]; PR4 cultures in continuous presence of 200 μM BAPN,no lysyl oxidase enzyme activity was detected
same,lysyl oxidase enzyme activity in medium,[7]; PR4 cultures in continuous presence of 400 μM BAPN,no lysyl oxidase enzyme activity was detected
same,effect on ability of ectopic lysyl oxidase expression to prevent growth in soft agar,[8],failed to block
